The results in this text go back to ChEMBL document CHEMBL1129074, “Inhibitors of human immunodeficiency virus type 1 derived from gp41 transmembrane protein: structure--activity studies” (J Med Chem, 1996).

Peptide text beside a SMILES is read from it.

The assay deals with MT4. The assay can be described thus: Inhibitory potency of gp41 fragment against HIV-1 induced cytopathic effect in MT-4 cell assay. The assay is classed as functional, cell-based. The settings on record: Homo sapiens.
On to `CC[C@H](C)[C@H](NC(=O)CNC(=O)[C@H](Cc1c[nH]c2ccccc12)NC(=O)[C@@H](NC(=O)[C@@H](NC(=O)[C@H](CC(C)C)NC(=O)[C@H](CCC(N)=O)NC(=O)[C@H](CC(C)C)NC(=O)CNC(=O)CNC(=O)[C@H](CS)NC(C)=O)[C@@H](C)O)C(C)C)C(=O)N[C@@H](CCCCN)C(=O)N[C@@H](CCC(N)=O)C(=O)N[C@@H](CC(C)C)C(=O)N[C@@H](CCC(N)=O)C(=O)N[C@@H](C)C(=O)N[C@@H](CCCN=C(N)N)C(=O)N[C@H](C(=O)N[C@@H](CC(C)C)C(=O)N[C@@H](C)C(=O)N[C@H](C(=O)N[C@@H](CCC(=O)O)C(=O)N[C@@H](CCCN=C(N)N)C(=O)N[C@@H](Cc1ccc(O)cc1)C(=O)N[C@@H](CC(C)C)C(=O)N[C@@H](CCCCN)C(=O)N[C@@H](CC(=O)O)C(=O)N[C@@H](CCC(N)=O)C(=O)O)C(C)C)[C@@H](C)CC` (Ac-CGGLQLTVWGIKQLQARILAVERYLKDQ-OH), for which the concentration for half-maximal inhibition (IC50) worked out at 60.5 µM.
In the case of `CC[C@H](C)[C@H](NC(=O)CNC(=O)[C@H](Cc1c[nH]c2ccccc12)NC(=O)[C@@H](NC(=O)[C@@H](NC(=O)[C@H](CC(C)C)NC(=O)[C@H](CCC(N)=O)NC(=O)[C@H](CC(C)C)NC(=O)[C@H](CC(C)C)NC(=O)[C@H](Cc1c[nH]cn1)NC(=O)[C@H](CCC(N)=O)NC(=O)[C@H](CCC(N)=O)NC(=O)[C@H](C)NC(=O)[C@H](CCC(=O)O)NC(=O)[C@@H](NC(=O)[C@H](C)NC(=O)[C@H](CCCN=C(N)N)NC(=O)[C@H](CC(C)C)NC(=O)[C@H](CC(C)C)NC(=O)[C@H](CC(N)=O)NC(=O)[C@H](CC(N)=O)NC(=O)CNC(=O)CNC(=O)[C@H](CS)NC(C)=O)[C@@H](C)CC)[C@@H](C)O)C(C)C)C(=O)N[C@@H](CCCCN)C(=O)N[C@@H](CCC(N)=O)C(=O)O` (Ac-CGGNNLLRAIEAQQHLLQLTVWGIKQ-OH) it was 14.8 µM; in that of `CC[C@H](C)[C@H](NC(C)=O)C(=O)N[C@@H](CCC(=O)O)C(=O)N[C@@H](C)C(=O)N[C@@H](CCC(N)=O)C(=O)N[C@@H](CCC(N)=O)C(=O)N[C@@H](Cc1c[nH]cn1)C(=O)N[C@@H](CC(C)C)C(=O)N[C@@H](CC(C)C)C(=O)N[C@@H](CCC(N)=O)C(=O)N[C@@H](CC(C)C)C(=O)N[C@H](C(=O)N[C@H](C(=O)N[C@@H](Cc1c[nH]c2ccccc12)C(=O)NCC(=O)N[C@H](C(=O)N[C@@H](CCCCN)C(=O)N[C@@H](CCC(N)=O)C(=O)N[C@@H](CC(C)C)C(=O)N[C@@H](CCC(N)=O)C(=O)N[C@@H](C)C(=O)N[C@@H](CCCN=C(N)N)C(=O)N[C@H](C(=O)N[C@@H](CC(C)C)C(=O)N[C@@H](C)C(=O)N[C@H](C(=O)N[C@@H](CCC(=O)O)C(=O)O)C(C)C)[C@@H](C)CC)[C@@H](C)CC)C(C)C)[C@@H](C)O` (Ac-IEAQQHLLQLTVWGIKQLQARILAVE-OH), 6.5 µM.
With `CC[C@H](C)[C@H](NC(=O)CNC(=O)[C@H](Cc1c[nH]c2ccccc12)NC(=O)[C@@H](NC(=O)[C@@H](NC(=O)[C@H](CC(C)C)NC(=O)[C@H](CCC(N)=O)NC(=O)[C@H](CC(C)C)NC(=O)[C@H](CC(C)C)NC(=O)[C@H](Cc1c[nH]cn1)NC(=O)[C@H](C)NC(=O)[C@H](CCC(N)=O)NC(=O)[C@H](C)NC(=O)[C@H](CCC(=O)O)NC(=O)[C@@H](NC(=O)[C@H](C)NC(=O)[C@H](CCCN=C(N)N)NC(=O)[C@H](C)NC(=O)[C@H](CC(C)C)NC(=O)[C@H](CC(N)=O)NC(=O)[C@H](CC(N)=O)NC(C)=O)[C@@H](C)CC)[C@@H](C)O)C(C)C)C(=O)N[C@@H](CCCCN)C(=O)N[C@@H](CCC(N)=O)C(=O)N[C@@H](CC(C)C)C(=O)N[C@@H](CCC(N)=O)C(=O)N[C@@H](C)C(=O)N[C@@H](CCCN=C(N)N)C(=O)N[C@H](C(=O)N[C@@H](CC(C)C)C(=O)N[C@@H](C)C(=O)N[C@H](C(=O)N[C@@H](CCC(=O)O)C(=O)N[C@@H](CCCN=C(N)N)C(=O)N[C@@H](Cc1ccc(O)cc1)C(=O)N[C@@H](CC(C)C)C(=O)N[C@@H](CCCCN)C(=O)N[C@@H](CC(=O)O)C(=O)N[C@@H](CCC(N)=O)C(=O)O)C(C)C)[C@@H](C)CC` (Ac-NNLARAIEAQAHLLQLTVWGIKQLQARILAVERYLKDQ-OH) the figure was 3 µM; with `CC[C@H](C)[C@H](NC(=O)CNC(=O)[C@H](Cc1c[nH]c2ccccc12)NC(=O)[C@@H](NC(=O)[C@@H](NC(=O)[C@H](CC(C)C)NC(=O)[C@H](CCC(N)=O)NC(=O)[C@H](CC(C)C)NC(=O)[C@H](CC(C)C)NC(=O)[C@H](Cc1c[nH]cn1)NC(=O)[C@H](CCC(N)=O)NC(C)=O)[C@@H](C)O)C(C)C)C(=O)N[C@@H](CCCCN)C(=O)N[C@@H](CCC(N)=O)C(=O)N[C@@H](CC(C)C)C(=O)N[C@@H](CCC(N)=O)C(=O)N[C@@H](C)C(=O)N[C@@H](CCCN=C(N)N)C(=O)N[C@H](C(=O)N[C@@H](CC(C)C)C(=O)N[C@@H](C)C(=O)N[C@H](C(=O)N[C@@H](CCC(=O)O)C(=O)O)C(C)C)[C@@H](C)CC` (Ac-QHLLQLTVWGIKQLQARILAVE-OH), 4.3 µM.
In the case of `CC[C@H](C)[C@H](NC(=O)CNC(=O)[C@H](Cc1c[nH]c2ccccc12)NC(=O)[C@@H](NC(=O)[C@@H](NC(=O)[C@H](CC(C)C)NC(=O)[C@H](CCC(N)=O)NC(=O)[C@H](CC(C)C)NC(=O)[C@H](CC(C)C)NC(=O)[C@H](Cc1c[nH]cn1)NC(=O)[C@H](CCC(N)=O)NC(=O)[C@H](CCC(N)=O)NC(=O)[C@H](C)NC(=O)[C@H](CCC(=O)O)NC(=O)[C@@H](NC(=O)[C@H](C)NC(=O)[C@H](CCCN=C(N)N)NC(=O)[C@H](CC(C)C)NC(=O)[C@H](CC(C)C)NC(=O)[C@H](CC(N)=O)NC(=O)[C@@H](N)CC(N)=O)[C@@H](C)CC)[C@@H](C)O)C(C)C)C(=O)N[C@@H](CCCCN)C(=O)N[C@@H](CCC(N)=O)C(=O)N[C@@H](CC(C)C)C(=O)N[C@@H](CCC(N)=O)C(=O)N[C@@H](C)C(=O)N[C@@H](CCCN=C(N)N)C(=O)N[C@H](C(=O)N[C@@H](CC(C)C)C(=O)N[C@@H](C)C(=O)N[C@H](C(=O)N[C@@H](CCC(=O)O)C(=O)N[C@@H](CCCN=C(N)N)C(=O)N[C@@H](Cc1ccc(O)cc1)C(=O)N[C@@H](CC(C)C)C(=O)N[C@@H](CCCCN)C(=O)N[C@@H](CC(=O)O)C(=O)N[C@@H](CCC(N)=O)C(=O)O)C(C)C)[C@@H](C)CC` (H-NNLLRAIEAQQHLLQLTVWGIKQLQARILAVERYLKDQ-OH) it was 2.7 µM.
The compound `CC[C@H](C)[C@H](NC(=O)CNC(=O)[C@H](Cc1c[nH]c2ccccc12)NC(=O)[C@@H](NC(=O)[C@@H](NC(=O)[C@H](CC(C)C)NC(=O)[C@H](CCC(N)=O)NC(=O)[C@H](CC(C)C)NC(=O)[C@H](CC(C)C)NC(=O)CCCCCN)[C@@H](C)O)C(C)C)C(=O)N[C@@H](CCCCN)C(=O)N[C@@H](CCC(N)=O)C(=O)N[C@@H](CC(C)C)C(=O)N[C@@H](CCC(N)=O)C(=O)N[C@@H](C)C(=O)N[C@@H](CCCN=C(N)N)C(=O)N[C@H](C(=O)N[C@@H](CC(C)C)C(=O)O)[C@@H](C)CC` (HELM PEPTIDE1{[NCCCCCC(=O)[*:2]].L.L.Q.L.T.V.W.G.I.K.Q.L.Q.A.R.I.L}$$$$V2.0) had an IC50 of 10.4 µM.
In turn, `CC[C@H](C)[C@H](NC(=O)CNC(=O)[C@H](Cc1c[nH]c2ccccc12)NC(=O)[C@@H](NC(=O)[C@@H](NC(=O)[C@H](CC(C)C)NC(=O)[C@H](CCC(N)=O)NC(=O)[C@H](CC(C)C)NC(=O)[C@H](CC(C)C)NC(=O)[C@H](Cc1c[nH]cn1)NC(=O)[C@H](CCC(N)=O)NC(=O)[C@H](CCC(N)=O)NC(=O)[C@H](C)NC(=O)[C@H](CCC(=O)O)NC(=O)[C@@H](NC(=O)[C@H](C)NC(=O)[C@H](CCCN=C(N)N)NC(=O)[C@H](CC(C)C)NC(=O)[C@H](CC(C)C)NC(=O)[C@H](CC(N)=O)NC(=O)[C@H](CC(N)=O)NC(C)=O)[C@@H](C)CC)[C@@H](C)O)C(C)C)C(=O)N[C@@H](CCCCN)C(=O)N[C@@H](CCC(N)=O)C(=O)N[C@@H](CC(C)C)C(=O)N[C@@H](CCC(N)=O)C(=O)N[C@@H](C)C(=O)N[C@@H](CCCN=C(N)N)C(=O)N[C@H](C(=O)N[C@@H](C)C(=O)N[C@@H](C)C(=O)N[C@@H](C)C(=O)NCCCCCC(=O)N[C@@H](C)C(=O)N[C@@H](C)C(=O)N[C@@H](C)C(=O)N[C@@H](C)C(=O)N[C@@H](CC(=O)O)C(=O)N[C@@H](CCCCN)C(=O)O)[C@@H](C)CC` (HELM PEPTIDE1{[ac].N.N.L.L.R.A.I.E.A.Q.Q.H.L.L.Q.L.T.V.W.G.I.K.Q.L.Q.A.R.I.A.A.A.[O=C(CCCCCN[*:1])[*:2]].A.A.A.A.D.K}$$$$V2.0) yielded an IC50 of 6.3 µM.
In the case of `CC[C@H](C)[C@H](NC(=O)[C@H](CCCN=C(N)N)NC(=O)[C@H](C)NC(=O)[C@H](CCC(N)=O)NC(=O)[C@H](CC(C)C)NC(=O)[C@H](CCC(N)=O)NC(=O)CCCCCNC(=O)CNC(=O)[C@H](Cc1c[nH]c2ccccc12)NC(=O)[C@@H](NC(=O)[C@@H](NC(=O)[C@H](CC(C)C)NC(=O)[C@H](CCC(N)=O)NC(=O)[C@H](CC(C)C)NC(=O)[C@H](CC(C)C)NC(=O)[C@H](Cc1c[nH]cn1)NC(=O)[C@H](CCC(N)=O)NC(C)=O)[C@@H](C)O)C(C)C)C(=O)N[C@@H](CC(C)C)C(=O)N[C@@H](C)C(=O)N[C@H](C(=O)N[C@@H](CCC(=O)O)C(=O)O)C(C)C` (HELM PEPTIDE1{[ac].Q.H.L.L.Q.L.T.V.W.G.[O=C(CCCCCN[*:1])[*:2]].Q.L.Q.A.R.I.L.A.V.E}$$$$V2.0) it was 40 µM; in that of `CC[C@H](C)[C@H](NC(=O)[C@H](CCCN=C(N)N)NC(=O)[C@H](C)NC(=O)[C@H](CCC(N)=O)NC(=O)[C@H](CC(C)C)NC(=O)[C@H](CCC(N)=O)NC(=O)CCCCCNC(=O)CCCCCNC(=O)CNC(=O)[C@H](Cc1c[nH]c2ccccc12)NC(=O)[C@@H](NC(=O)[C@@H](NC(=O)[C@H](CC(C)C)NC(=O)[C@H](CCC(N)=O)NC(=O)[C@H](CC(C)C)NC(=O)[C@H](CC(C)C)NC(=O)[C@H](Cc1c[nH]cn1)NC(=O)[C@H](CCC(N)=O)NC(C)=O)[C@@H](C)O)C(C)C)C(=O)N[C@@H](CC(C)C)C(=O)N[C@@H](C)C(=O)N[C@H](C(=O)N[C@@H](CCC(=O)O)C(=O)O)C(C)C` (HELM PEPTIDE1{[ac].Q.H.L.L.Q.L.T.V.W.G.[O=C(CCCCCN[*:1])[*:2]].[O=C(CCCCCN[*:1])[*:2]].Q.L.Q.A.R.I.L.A.V.E}$$$$V2.0), 65.7 µM.
